Assay results: patent US20220257580A1, “TREATMENT OF C3 GLOMERULOPATHY USING A C5A INHIBITOR” (CHEMOCENTRYX, INC., priority 2020, published 2022)
“Also recorded” adds a separate entry of the source.

Key:
Assay type in all cases: in vivo, human
[1] = test system: patient with progressive complement 3 (C3) glomerulonephritis (recurrent C3GN in a renal transplant); assay: Special Needs program study of compound 1 in one patient: eGFR and proteinuria; details: for eGFR decline / eGFR: eGFR 83 mL/min/1.73 m^2 14 months prior, 46 at start of treatment
Excerpt: Under the Special Needs program in the United Kingdom (which is similar to a compassionate use protocol in the US), a C3 glomerulonephritis patient received treatment with the orally administered complement inhibitor compound 1, following the protocol detailed below. The patient had refractory disease despite a kidney transplant and prior treatment with the broadly immunosuppressive drugs rituximab, cyclophosphamide, mycophenolate mofetil, tacrolimus, and steroids. Renal allograft biopsies were taken pre-dose, 2 and 7 months during therapy. The primary efficacy objective is to evaluate the efficacy of compound 1 based on change from baseline in eGFR (MDRD, Estimated Glomerular Filtration Rate) and proteinuria. This is a clinical study to test the safety, tolerability, and efficacy of compound 1 in a patient with recurrent […] in a renal transplant. The patient will have biopsy proven recurrent […] prior to start of dosing, and be deemed eligible based on the inclusion and exclusion criteria. Screening procedures will include recording of demographics, medical history, medication history, physical examination and vital signs, serum chemistry, hematology, urinalysis (including UPCR measurement), viral screening (if not performed within prior 12 weeks), and estimated glomerular filtration rate (eGFR) assessment based on serum creatinine. The baseline eGFR needs to be at least 25 mL/min/1.73 m^2 for study eligibility. On Day 1, the patient will start compound 1 treatment. Patients will take compound 1 30 mg orally twice daily for an initial period of 84 days. The patient will visit the study center on Days 1, 8, 15, 29, 57, and 85. The compound 1 dose will be taken in the morning optimally within one hour after breakfast and in the evening optimally within one hour after dinner. If the patient's clinical condition stabilizes or improves, and there are no adverse events preventing further treatment, the patient may be treated for another 84-day treatment cycle. The 84-day cycles may be repeated for a total of up to 4 cycles under this protocol. For the 84-day cycles after the first cycle, the patient will visit the study center every 4 weeks. There will be 4-week follow-up period after the patient stops the compound 1 treatment. Efficacy assessments include: • 1. First morning urinary PCR or ACR; • 2. eGFR by Modification of Diet in Renal Disease (MDRD) formula based on serum creatinine; • 3. Plasma and urine pharmacodynamic markers, e.g., MCP-1, C3a, C5a, properdin, and sC5b-9; • 4. Glomerular inflammation (e.g., crescents, inflammatory cell infiltrate, endocapillary proliferation) and C3 deposition in a follow-up renal biopsy sample;

[2] = test system: patients with C3 glomerulopathy; assay: Phase 2 placebo-controlled study (ACCOLADE): safety and tolerability; details: patients with C3G
Excerpt: The secondary objectives of this study include assessment of: • 1. The safety of compound 1 compared to placebo based on the incidence of adverse events, changes in clinical laboratory measurements, and vital signs; • 2. Changes in laboratory parameters of renal disease including estimated glomerular filtration rate (eGFR), proteinuria, and urinary excretion of monocyte chemoattractant protein-1 (MCP-1) with compound 1 compared to placebo; • 3. Health-related quality-of-life changes based on Short Form-36 version 2 (SF-36 v2) and EuroQOL-5D-5L (EQ-5D-5L) with compound 1 compared to placebo; • 4. Evaluation of the pharmacokinetic profile of compound 1 in patients with C3 glomerulopathy.
Safety assessments include adverse events, physical examination abnormalities, vital signs, and clinical laboratory tests (including blood chemistry, hematology, and urinalysis).
Safety endpoints include: • 1. Patient incidence of treatment-emergent serious adverse events, adverse events, and withdrawals due to adverse events; • 2. Change from baseline and shifts from baseline in all safety laboratory parameters; • 3. Change from baseline in vital signs.

[3] = test system: patients with C3 glomerulopathy; assay: Phase 2 placebo-controlled study (ACCOLADE): eGFR, urinary PCR, urinary MCP-1:creatinine ratio
Excerpt: The secondary objectives of this study include assessment of: • 1. The safety of compound 1 compared to placebo based on the incidence of adverse events, changes in clinical laboratory measurements, and vital signs; • 2. Changes in laboratory parameters of renal disease including estimated glomerular filtration rate (eGFR), proteinuria, and urinary excretion of monocyte chemoattractant protein-1 (MCP-1) with compound 1 compared to placebo; • 3. Health-related quality-of-life changes based on Short Form-36 version 2 (SF-36 v2) and EuroQOL-5D-5L (EQ-5D-5L) with compound 1 compared to placebo; • 4. Evaluation of the pharmacokinetic profile of compound 1 in patients with C3 glomerulopathy. Patients will then be randomized, 1:1, to receive 30 mg compound 1 twice daily or matching placebo for 26 weeks in a double-blind, placebo-controlled manner. The 26-week double-blind period will be followed by a 26-week period during which all patients will receive compound 1 treatment. Efficacy assessments include: • 1. Renal histology to determine the C3G Histologic Index (CHI) for disease activity and chronicity; • 2. eGFR calculated by the Modification of Diet in Renal Disease (MDRD) equation from serum creatinine; • 3. First morning urinary PCR; • 4. First morning urinary MCP-1:creatinine ratio; • 5. EQ-5D-5L and SF-36 v2. Other efficacy endpoints include: • 1. The percent change from baseline in the CHI for disease chronicity over the placebo-controlled 26-week treatment period; • 2. The change and percent change from baseline in eGFR over the placebo-controlled 26-week treatment period; • 3. The percent change from baseline in urinary PCR over the placebo-controlled 26-week treatment period; • 4. The percent change from baseline in urinary MCP-1:creatinine ratio over the placebo-controlled 26-week treatment period; • 5. Change from baseline in EQ-5D-5L and SF-36 v2 (domains and component scores) over the placebo-controlled 26-week treatment period. Continuous variables, including eGFR, urinary PCR, urinary MCP-1:creatinine ratio, EQ-5D-5L, and SF-36 v2 will be analyzed using a mixed effects model for repeated measures ([…]) with treatment group, visit, treatment-by-visit interaction, and randomization strata (C3GN or DDD, and renal transplant or not) as factors, and baseline as covariate. Patients will be considered as repeated measure units over visits. Point estimates and corresponding 95% confidence intervals will be estimated for the difference between the compound 1 group and the control group across 26 weeks using simple contrast from the model. Similar to the primary endpoint, the second 26 weeks will be compared to the first 26 weeks for the placebo group.

[4] = test system: patients with C3 glomerulopathy; assay: Phase 2 placebo-controlled study (ACCOLADE): C3G Histologic Index from kidney biopsies
Description: The primary objective is to evaluate the efficacy of compound 1 compared to placebo based on histologic changes in C3G pathology from kidney biopsies taken before and during treatment. Patients will then be randomized, 1:1, to receive 30 mg compound 1 twice daily or matching placebo for 26 weeks in a double-blind, placebo-controlled manner. The 26-week double-blind period will be followed by a 26-week period during which all patients will receive compound 1 treatment. Efficacy assessments include: • 1. Renal histology to determine the C3G Histologic Index (CHI) for disease activity and chronicity; • 2. eGFR calculated by the Modification of Diet in Renal Disease (MDRD) equation from serum creatinine; • 3. First morning urinary PCR; • 4. First morning urinary MCP-1:creatinine ratio; • 5. EQ-5D-5L and SF-36 v2. All renal biopsies will also be analyzed based on hematoxylin-eosin (H&E) staining, periodic acid-Schiff (PAS) staining, trichrome, and Jones methenamine silver staining. These renal biopsies will be evaluated by a central reader, blinded to treatment assignment from either slides or high-resolution electronic images. The central reader will determine the degree of disease activity and chronicity. The primary efficacy endpoint is the percent change from baseline to week 26 in the C3G Histologic Index (CHI) for disease activity. The compound 1 and placebo groups will be compared by ANCOVA with treatment group and randomization strata (C3GN or DDD, and renal transplant or not) as factors, and baseline as covariate. Point estimates and corresponding 95% confidence intervals will be estimated for the difference between the compound 1 and placebo control group. Other efficacy endpoints include: • 1. The percent change from baseline in the CHI for disease chronicity over the placebo-controlled 26-week treatment period; • 2. The change and percent change from baseline in eGFR over the placebo-controlled 26-week treatment period; • 3. The percent change from baseline in urinary PCR over the placebo-controlled 26-week treatment period; • 4. The percent change from baseline in urinary MCP-1:creatinine ratio over the placebo-controlled 26-week treatment period; • 5. Change from baseline in EQ-5D-5L and SF-36 v2 (domains and component scores) over the placebo-controlled 26-week treatment period. The primary endpoint of the study was change from baseline to week 26 in the C3G Histologic Index for Disease Activity, comparing the changes in kidney histology from biopsy sections taken from patients characterized by elevated levels of C5b-9 complement markers in the blood at time of study entry (baseline).

[5] = test system: patient with progressive complement 3 (C3) glomerulonephritis (recurrent C3GN in a renal transplant); assay: Special Needs program study of compound 1 in one patient: renal allograft biopsy histology; details: for Endocapillary hypercellularity/total: pre-treatment 3/11; for CD68-positive cells/glomerulus: pre-treatment 11; for Immunoflourescence microscopy, IgM: pre-treatment trace
Excerpt: Under the Special Needs program in the United Kingdom (which is similar to a compassionate use protocol in the US), a C3 glomerulonephritis patient received treatment with the orally administered complement inhibitor compound 1, following the protocol detailed below. The patient had refractory disease despite a kidney transplant and prior treatment with the broadly immunosuppressive drugs rituximab, cyclophosphamide, mycophenolate mofetil, tacrolimus, and steroids. Renal allograft biopsies were taken pre-dose, 2 and 7 months during therapy. At the Day 1 and post-Day 1 study visits, blood and urine samples will be collected for safety, efficacy, and pharmacokinetic measurements. Physical examinations and vital signs assessments will be performed throughout the study. Concomitant medication and adverse event assessments will be made at every study visit. If at all possible, a renal biopsy will be performed after an appropriate follow-up period to assess the changes in kidney histology. Efficacy assessments include: • 1. First morning urinary PCR or ACR; • 2. eGFR by Modification of Diet in Renal Disease (MDRD) formula based on serum creatinine; • 3. Plasma and urine pharmacodynamic markers, e.g., MCP-1, C3a, C5a, properdin, and sC5b-9; • 4. Glomerular inflammation (e.g., crescents, inflammatory cell infiltrate, endocapillary proliferation) and C3 deposition in a follow-up renal biopsy sample; Renal biopsies will be analyzed by periodic acid-Schiff (PAS) staining, immunofluorescence staining for C3, C5b-9, and potentially other markers. Electron microscopy may also be performed.

Cc1ccc(NC(=O)[C@H]2CCCN(C(=O)c3c(C)cccc3F)[C@H]2c2ccc(NC3CCCC3)cc2)cc1C(F)(F)F [Compound 1, avacopan]
eGFR decline ([1]; after 1 month of treatment): attenuated
Proteinuria drop ([1]; single C3GN patient, compound 1 30 mg orally twice daily): approximately 80%
eGFR decline / eGFR ([1]; single C3GN patient): stabilized eGFR
eGFR decline / eGFR ([1]; single C3GN patient, listed as compound 1): attenuated or stopped
safety and tolerability [2]: safe and well-tolerated
Urinary MCP-1:Creatinine Ratio Percent Change from Baseline ([3]; 26-week treatment period, placebo 1%): −12%
Urinary Protein:Creatinine Ratio (Proteinuria) Percent Change from Baseline ([3]; 26-week treatment period, placebo −14%): −26%
eGFR improvement from baseline ([3]; 26 weeks, subjects with eGFR <60 mL/min/1.73 m^2 at baseline, placebo 6% worsening, P=0.0199): 13%
eGFR mean increase ([3]; 26 weeks, subjects with eGFR <60 mL/min/1.73 m^2 at baseline, placebo decrease of 1.4): about 5 mL/min/1.73 m^2
eGFR average increase relative to placebo ([3]; after 26 weeks, subjects with eGFR <60 mL/min/1.73 m^2 at baseline): ~20%
eGFR improvement on average from baseline ([3]; baseline to week 26, overall, placebo worsened by 6%, P=0.0221): 5%
UPCR (proteinuria) reduction from baseline ([3]; end of 26 weeks, placebo 14%): 26%
urinary MCP-1 creatinine ratio versus the placebo group ([3]; throughout the 26-week treatment period): consistently exhibiting lower levels
UPCR (proteinuria) mean decrease from baseline ([3]; week 16, placebo 1% decrease, P<0.05): 35%
C3G Index for Disease Chronicity, higher change in placebo group than avacopan ([4]; baseline to Week 26): 26 percentage point
C3G Histologic Index for Disease Chronicity, change from baseline ([4]; baseline to Week 26, increase = worsening, placebo 58%): 32%
C3G Histologic Index for Disease Activity (C3G Activity Score), improvement on average ([4]; baseline to week 26, all C3G subjects (elevated and normal C5b-9), placebo worsened by 26%): 6%
C3G Activity Score, average difference between the two treatment arms ([4]; baseline to week 26, elevated C5b-9 patients, avacopan vs placebo, not statistically significant): approximately 40%
C3G Histologic Index for Disease Activity (C3G Activity Score), improvement on average ([4]; baseline to week 26, patients with elevated C5b-9 at baseline, placebo worsened by 38%): 2%
C3G Histologic Index for Disease Chronicity, mean change from baseline ([4]; baseline to week 26, placebo 1.6, P<0.05): 0.8
Endocapillary hypercellularity/total ([5]; 2 months of therapy): 0/36
CD68-positive cells/glomerulus ([5]; 2 months of therapy): 2-3
Immunoflourescence microscopy, IgM ([5]; 2 months of therapy): neg
Endocapillary hypercellularity/total ([5]; 7 months of therapy): 0/14
CD68-positive cells/glomerulus ([5]; 7 months of therapy): 1-2
Immunoflourescence microscopy, IgM ([5]; 7 months of therapy): neg
glomerular inflammation ([5]; on-treatment biopsy compared to pre-treatment): reduced glomerular inflammation
glomerular endocapillary proliferation / hypercellularity ([5]; on-treatment kidney biopsy compared to pre-treatment biopsy): clearance of glomerular endocapillary proliferation; also recorded: resolution of glomerular endocapillary hypercellularity; also recorded: reduction in endocapillary hypercellularity
glomerular inflammatory macrophages ([5]; on-treatment kidney biopsy compared to pre-treatment biopsy, CD68 staining): marked decrease; also recorded: reduction in glomerular macrophages
